In patent US8354422B2, “Pyrimidine inhibitors of kinase activity” (Abbott Laboratories Inc., priority 2009, dated 2013) one finds IC50 data, which are given here for six compounds.

Some results are limits rather than exact numbers.

T1 sequence (P08069 954-1367): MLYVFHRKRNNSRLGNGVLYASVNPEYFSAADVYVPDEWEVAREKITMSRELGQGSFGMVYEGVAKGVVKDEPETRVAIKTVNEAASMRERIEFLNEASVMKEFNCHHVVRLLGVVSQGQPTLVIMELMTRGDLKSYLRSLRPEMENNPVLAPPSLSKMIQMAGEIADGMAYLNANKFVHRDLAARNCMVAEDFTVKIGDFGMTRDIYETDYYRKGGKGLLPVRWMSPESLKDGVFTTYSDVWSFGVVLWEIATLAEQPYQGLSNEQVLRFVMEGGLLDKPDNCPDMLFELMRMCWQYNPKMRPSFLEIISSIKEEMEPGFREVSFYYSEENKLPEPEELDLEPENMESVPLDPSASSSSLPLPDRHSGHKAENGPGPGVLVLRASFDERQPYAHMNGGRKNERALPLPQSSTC

The experiment concerns the target T1, C-terminal GST-tagged, recombinant, human IGF-1R, amino acids 954-1367 (Homo sapiens, UniProt P08069).
T1 construct: human IGF-1R, amino acids 954-1367 expressed by baculovirus in Sf21 cells; GST (C); purchased Cell Signaling Technology; host or cells: baculovirus in Sf21 cells
Kind of experiment: IGF-1R kinase activity, homogenous time-resolved fluorescence (HTRF) in vitro kinase assay. In kind it is biochemical. Particulars: IGF-1R kinase HTRF assay, ATP 50 μM, biotinylated peptide substrate 0.5 μM, 60 minutes at room temperature. A digest of the protocol: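 HTRF assay with baculovirus/Sf21-expressed enzyme, 50 μM ATP, 0.5 μM biotinylated peptide substrate, 2% DMSO, in HEPES pH 7.5 buffer with MgCl2, 2 mM MnCl2, BSA, DTT; 60 min at room temperature. EDTA-quenched, detected with streptavidin-APC and Eu-cryptate anti-phosphotyrosine mAb; 615/665 nm ratio used for IC50.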
Take `COc1cc(N2CCC(N(C)C)CC2)ccc1Nc1nccc(-c2c(-c3ccc(OCc4ccccc4)cc3)nc3sccn23)n1` [Example 80, 4-{6-[4-(benzyloxy)phenyl]imidazo[2,1-b][1,3]thiazol-5-yl}-N-{4-[4-(dimethylamino)piperidin-1-yl]-2-methoxyphenyl}pyrimidin-2-amine]: the IC50 was in the range of 0.025 to 0.1 µM. For `COc1cc(N(C)C)ccc1Nc1nccc(-c2c(-c3ccc(OCc4ccccc4)c(OC)c3)nc3sccn23)n1` [Example 81, N^1-(4-{6-[4-(benzyloxy)-3-methoxyphenyl]imidazo[2,1-b][1,3]thiazol-5-yl}pyrimidin-2-yl)-2-methoxy-N^4,N^4-dimethylbenzene-1,4-diamine], the IC50 was 0.025 to 0.1 µM. Consider `COc1cc(-c2nc3sccn3c2-c2ccnc(Nc3ccccc3CN3CCCC3)n2)ccc1OCc1ccccc1` [Example 82, 4-{6-[4-(benzyloxy)-3-methoxyphenyl]imidazo[2,1-b][1,3]thiazol-5-yl}-N-[2-(pyrrolidin-1-ylmethyl)phenyl]pyrimidin-2-amine], for which the IC50 was above 1 µM. In the case of `COc1cc(-c2nc3sccn3c2-c2ccnc(Nc3ccc(CN(C)C)cc3)n2)ccc1OCc1ccccc1` [Example 83], the IC50 lay in the range of 0.025 to 0.1 µM. On to `COc1cc(N2CCC(N(C)C)CC2)ccc1Nc1nccc(-c2c(-c3ccc(OCc4ccccc4)c(OC)c3)nc3sccn23)n1` [Example 84, 4-{6-[4-(benzyloxy)-3-methoxyphenyl]imidazo[2,1-b][1,3]thiazol-5-yl}-N-{4-[4-(dimethylamino)piperidin-1-yl]-2-methoxyphenyl}pyrimidin-2-amine], for which the IC50 was below 0.025 µM.

With `COc1cc(-c2nc3sccn3c2-c2ccnc(Nc3cccc(CCN(C)C)c3)n2)ccc1OCc1ccccc1` [Example 85, 4-{6-[4-(benzyloxy)-3-methoxyphenyl]imidazo[2,1-b][1,3]thiazol-5-yl}-N-{3-[2-(dimethylamino)ethyl]phenyl}pyrimidin-2-amine], the IC50 is 0.025 to 0.1 µM.
